Results on eleven molecules are retold here after ChEMBL document CHEMBL5316295, “Systematic Design of Adenosine Analogs as Inhibitors of a Clostridioides difficile-Specific DNA Adenine Methyltransferase Required for Normal Sporulation and Persistence” (J Med Chem, 2023).

In general, pKd refers to −log10 of the Kd, conventionally taken in molar units. As a reminder, the pIC50 is the negative decadic logarithm of the IC50, by convention in mol/L.

pIC50, pKd: −log10 of the molar value.

A short description of assay [1]: Binding affinity to Clostridioides difficile-specific DNA adenine methyltransferase by MicroCal PEAQ-ITC instrument analysis.
Assay [2] in a line: Inhibition of Clostridioides difficile-specific DNA adenine methyltransferase mediated methylation using 5'-CGA TTC AAA AAG TCC CAA G-3' and 3'-GCT AAG TTT TTC AGG GTT C-5' as substrate and SAM as cosubstrate preincubated for 5 mins followed by substrate and cosubstrate addition and measured after 3 mins by MTase glo assay.

Regarding `Nc1ccc(CCNc2ncnc3c2ncn3[C@@H]2O[C@H](CO)[C@@H](O)[C@H]2O)cc1`, in assay [1], the negative-log Kd (pKd) is 4.74.
Regarding `OC[C@H]1O[C@@H](n2cnc3c(NCc4ccc(O)cc4)ncnc32)[C@H](O)[C@@H]1O`, the pKd in assay [1] is 5.28. In assay [2], the pIC50 was 5.32.
In the same order, the values of `OC[C@H]1O[C@@H](n2cnc3c(NCCc4ccccc4)ncnc32)[C@H](O)[C@@H]1O` are 5.54 and 5.60.
Regarding `OC[C@H]1O[C@@H](n2cnc3c(NCCCC4CCNCC4)ncnc32)[C@H](O)[C@@H]1O`, the pIC50 in assay [2] is 5.42.
`OC[C@H]1O[C@@H](n2cnc3c(NCCCCCc4ccccc4)ncnc32)[C@H](O)[C@@H]1O`: the pKd in assay [1] was 5.89. Besides, the negative-log IC50 (pIC50) in assay [2] is 5.89.
`OC[C@H]1O[C@@H](n2cnc3c(N[C@H]4CCc5ccccc54)ncnc32)[C@H](O)[C@@H]1O` had a pKd in assay [1] of 4.31. For the same molecule, in assay [2], the pIC50 is 4.37.
Regarding `OC[C@H]1O[C@@H](n2cnc3c(NCc4ccccc4)ncnc32)[C@H](O)[C@@H]1O` [N6-BENZYLADENOSINE], the pKd in assay [1] is 4.89. The molecule further gave a pIC50 in assay [2] of 4.82.
`CC(C)(C)OC(=O)N1CCC(CNc2ncnc3c2ncn3[C@@H]2O[C@H](CO)[C@@H](O)[C@H]2O)CC1` showed a pKd in assay [1] of 5.96. Moreover, the pIC50 in assay [2] was 5.70.
In the same order, the values of `OC[C@H]1O[C@@H](n2cnc3c(NCCCCc4ccccc4)ncnc32)[C@H](O)[C@@H]1O` are 5.80 and 5.80.
With `OC[C@H]1O[C@@H](n2cnc3c(NCCCc4ccccc4)ncnc32)[C@H](O)[C@@H]1O`, in assay [1], the pKd was 6.30. In assay [2], this molecule had a pIC50 of 6.15.
In the same order, the values of `Nc1ccc(CCCNc2ncnc3c2ncn3[C@@H]2O[C@H](CO)[C@@H](O)[C@H]2O)cc1` are 5.82 and 5.85.
